Assays:
Annexin A5 (ANXA5) [1] = biological target: T1, Annexin A5 (ANXA5) (Homo sapiens, UniProt P08758); assay: microscale thermophoresis; assay type: binding
T1 construct: recombinant protein purified from E. coli; His-tag labelled for MST
T1 sequence (P08758 2-320): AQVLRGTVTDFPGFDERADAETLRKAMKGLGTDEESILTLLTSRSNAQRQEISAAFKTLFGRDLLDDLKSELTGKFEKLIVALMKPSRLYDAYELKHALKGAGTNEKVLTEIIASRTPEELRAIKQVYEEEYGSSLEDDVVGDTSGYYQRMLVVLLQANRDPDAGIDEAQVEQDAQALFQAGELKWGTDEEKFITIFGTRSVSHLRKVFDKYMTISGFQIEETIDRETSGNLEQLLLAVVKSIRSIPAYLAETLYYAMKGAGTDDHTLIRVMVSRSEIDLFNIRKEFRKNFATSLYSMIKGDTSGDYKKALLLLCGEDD

Annexin A5 (ANXA5) [2] = biological target: T1, Annexin A5 (ANXA5); assay: in-gel fluorescence after click chemistry; assay type: binding; conditions: covalent; 12% SDS-PAGE

Structure (SMILES) | Kd (Annexin A5 (ANXA5) [1]) | in-gel fluorescence after click chemistry (Annexin A5 (ANXA5) [2])
O=C(O)/C=C/c1ccc(O)c(O)c1 [CA, caffeic acid] | 3.68 µM | 
C#CCNC(=O)/C=C/c1ccc(O)c(O)c1 [CA probe] |  | wild‐type ANXA5 could be labeled by CA‐probe
